# Test results published in patent US12428455B2, “Dominant negative CEBPB and CEBPD proteins and methods of use for decreasing viability of neoplastic cells” (The Trustees of Columbia University in the City of New York, priority 2018, dated 2025).
# No end group written: not given here.
# Assays:
# Assay type in all cases: cell-based
# [1] = system: A375 melanoma cells; experiment: Cell number after peptide treatment, A375; settings: 6 days, 0 μM to 50 μM; stock without BSA
# Method: Replicate cultures were exposed to the peptides the for 6 days at the indicated concentrations. Stock solutions of the peptides were prepared in buffer without added bovine serum albumin (BSA).
# [2] = system: MCF10A non-cancer human breast epithelial cells; experiment: Cell number after peptide treatment, MCF10A; settings: 6 days, 0 μM to 50 μM; stock without BSA
# Method: Replicate cultures of HIEC-6 non-cancer human intestinal epithelial cells, MCF10A non-cancer human breast epithelial cells, or normal human astrocytes were exposed to CP-DN-CEBPB or CP-DN-CEBPD, for 6 days at doses of 0 μM to 50 μM. […] Stock solutions of the peptides were prepared in buffer without added bovine serum albumin (BSA).
# [3] = system: MCF10A non-cancer human breast epithelial cells; experiment: Morphology after peptide treatment, MCF10A; settings: 5 to 6 days, 20 μM or 50; stock without BSA
# Method: Stock solutions of the peptides were prepared in buffer without added bovine serum albumin (BSA).
# [4] = system: HCT116 cells; experiment: Combination with gamma radiation, cell number, HCT116; settings: 2 Gy or 5 Gy; peptide 0.05, 0.5 or 5 μM one day later, 6 days; CI<1 indicates synergism
# Method: Replicate cultures of T98G and HCT116 cells were exposed to 2 Gy or 5 Gy of gamma radiation. One day later, the cultures were treated with 0.05 μM, 0.5 μM, or 5 μM CP-dn-CEBPB and CP-dn-CEBPD peptides, maintained for 6 days, and then assessed for cell number. The bar graphs of FIGS. 24A (T98G, CP-dn-CEBPB), 24C (T98G, CP-dn-CEBPBD, 24E (HCT116, CP-dn-CEBPD), and 24G (HCT116, CP-dn-CEBPD) show relative cell numbers for each condition as compared to untreated controls. The line graphs of FIGS. 24B (T98G, CP-dn-CEBPB), 24D (T98G, CP-dn-CEBPBD, 24F (HCT116, CP-dn-CEBPB), and 24H (HCT116, CP-dn-CEBPD) show the response as normalized in each case so that 100 represents the relative number of surviving cells that received the indicated level of radiation treatment, but no peptide treatment. Calculated Combination Indexes (CI) are T98G, CI=0.61±0.05 for CP-dn-CEBPB, 0.68±0.07 for CP-dn-CEBPD; HCT116, 0.89±0.04 for CP-dn-CEBPB, 0.86±0.05 for CP-dn-CEBPD. CI=1 indicates additivity; CI<1 indicates synergism; CI>1 indicates antagonism.
# [5] = system: T98G cells; experiment: Combination with paclitaxel, cell number, T98G; settings: 1 nM or 5 nM paclitaxel and 3, 10 or 20 μM peptide, 6 days
# Method: Replicate cultures of T98G, MDA-MB 231, and MCF7 cells were treated with 1 nM or 5 nM paclitaxel and 3 μM, 10 μM, or 20 μM CP-dn-CEBPB and CP-dn-CEBPD peptides, maintained for 6 days, and then assessed for cell number. The bar graphs of FIGS. 26A (T98G, CP-dn-CEBPB), 26C (T98G, CP-dn-CEBPBD, 26E (MDA-MB-231, CP-dn-CEBPBD), 26G (MDA-MB-231, CP-dn-CEBPD), 26I (MCF7, CP-dn-CEBPBB), and 26K (MCF7, CP-dn-CEBPBD) show relative cell numbers for each condition as compared to untreated controls. The line graphs of FIGS. 26B (T98G, CP-dn-CEBPB), 26D (T98G, CP-dn-CEBPBD), 26F (MDA-MB-231, CP-dn-CEBPB), 26H (MDA-MB-231, CP-dn-CEBPD), 26J (MCF7, CP-dn-CEBPB), and 26L (MCF7 CP-dn-CEBPBD) show the response as normalized in each case so that 100 represents the relative number of surviving cells that received the indicated level of paclitaxel, but no peptide treatment. Calculated combination indices (CI) were as follows: MCF7: CI=0.41±0.04 for CP-dn-CEBPB; 0.44±0.04 for CP-dn-CEBPD; MDA-MB-231: 0.74±0.03 for CP-dn-CEBPB; 0.74±0.05 for CP-dn-CEBPD; T98G: CI=0.84±0.06 for CP-dn-CEBPB and 0.75±0.07 for CP-dn-CEBPD.
# [6] = system: paclitaxel-resistant T98G cells; experiment: Cell number, paclitaxel-resistant T98G cells; settings: 6 days; 0 μM to 50 μM peptide or 0 nM to 50 nM paclitaxel
# Method: Replicate cultures of T98G wild type cells and paclitaxel-resistant T98G cells were treated with 0 nM to 50 nM paclitaxel or 0 μM to 50 μM CP-dn-CEBPB or CP-dn-CEBPD peptides, maintained for 6 days, and then assessed for cell number. Paclitaxel resistant T98G cells were inhibited by both CP-dn-CEBPB (FIG. 28A) and CP-dn-CEBPD (FIG. 28B), but, as expected were not inhibited by paclitaxel (FIG. 28C). This establishes that CP-dn-CEBPB and CP-dn-CEBPD may be effective against chemotherapy-resistant cells.
# [7] = system: IL8; experiment: qPCR for IL8 mRNA; settings: 20 μM, 3 days; T98G, MDA-MB-231, MCF7, A375 and HCT116 cells
# Method: T98G, MDA-MB-231, MCF7, A375, and HCT116 cells were treated with or without 20 μM CP-dn-CEBPB or CP-dn-CEBPD for 3 days and then assessed by qPCR for relative levels of IL6 (FIG. 32A, T98G; FIG. 32B, MDA-MB-231; FIG. 32C, MCF7; FIG. 32D, A375; FIG. 32E, HCT116) and IL8 mRNA (FIG. 32F, T98G; FIG. 32G, MDA-MB-231; FIG. 32H, MCF7; FIG. 32I, A375; FIG. 32J, HCT116).
# [8] = system: BMF; experiment: Apoptotic nuclei after BMF knockdown siRNA and CP-dn-CEBPD; settings: siRNA 2 days, then 20 μM peptide 2 days; T98G, MCF7, A375 and HCT116 cells
# Method: T98G, MCF7, A375, and HCT116 cells were treated with one of two BMF knockdown siRNAs or control siRNA for 2 days, then treated with or without 20 μM CP-dn-CEBPD for 2 days. Cultures were assessed for % of apoptotic nuclei (n=6 random fields) (FIG. 36A, T98G; FIG. 36B, MCF7; FIG. 38C, A375; FIG. 36D, HCT116).
Sequence,growth and survival of A375 cells [1],number of MCF10A cells [2],morphology of MCF10A cells [3],Combination Index (CI) with gamma radiation [4],combination index (CI) with paclitaxel [5],inhibition of paclitaxel-resistant T98G cells (cell number) [6],relative levels of IL8 mRNA [7],% of apoptotic nuclei with BMF knockdown siRNAs or control siRNA [8]
RQIKIWFQNRRMKWKKLETQHKVLELTAENERLQKKVEQLSRELSTLRNLFKQL [CP-DN-CEBPB],decrease in growth and survival,did not cause a dose-dependent decrease,did not affect the morphology,0.89±0.04,0.84±0.06,inhibited,suppress expression,–
RQIKIWFQNRRMKWKKLVELSAENEKLHQRVEQLTRDLAGLRQFFK [CP-DN-CEBPD],decrease in growth and survival,did not cause a dose-dependent decrease,did not affect the morphology,0.86±0.05,0.75±0.07,inhibited,suppress expression,kills cancer cells by upregulating pro-apoptotic BMF
